Data as given in US20250062040A1, “COMPUTER-BASED SYSTEMS FOR ACQUIRING AND ANALYZING OBS[…] DATA” (priority 2021, published 2025).

How the values were obtained:
[1] = eye temperature by automated thermographic system of behavioral platform; type: in vivo, mice; details: 1 mg/kg intraperitoneally, tested after 15 minutes, 45-minute session, vs vehicle, FIG. 37
Source text: In some embodiments, with regard to image calibration, in an experimental session, actual Peltier temperatures may be logged and saved along with the thermal camera video. The logged Peltier temperatures in Celsius can be paired to the optical density (OD) levels measured at the two Peltier ROIs in each corresponding frame, so that a linear calibration curve can be used to convert the OD of measured eye ROIs to degrees Celsius.
In some embodiments, the subject body, such as a mouse, can be segmented based on the optical density distribution on each frame. The contour of the mouse can be masked by finding the largest eight-connected objects in the binarized image as shown in FIG. 36. […] The size of the eye region relative to the mask and shape properties such as ‘Eccentricity’ (ratio of the distance between the foci of the ellipse and its major axis length) and ‘Solidity’ (proportion of the pixels in the convex hull that are also in the region, computed as Area/ConvexArea) can be measured to filter out false positives, when those parameters may be outside of the range learned from manually annotated ground truth examples.
In some embodiments, with regard to feature extraction, the average OD of automatically detected eye ROIs can be converted to Celsius based on the calibration curve. […]

[2] = core temperature by rectal temperature measurement; type: in vivo, mice; details: 1 mg/kg intraperitoneally; before injection vs just prior to thermal camera recording
Method: In some embodiments, a validation experiment can test whether this method may effectively detect changes in body temperature induced by drugs from thermal videos. In one such test, two groups of mice can be treated with chlorpromazine 1 mg/kg (n=13) or vehicle (n=14) intraperitoneally, and tested after 15 minutes under the thermal camera system. An average change of 0.9 degree Celsius in core temperature was observed by measuring rectal temperature of animals before injection and just prior to their thermal camera recording.

[3] = pEEG spectral power signature; type: in vivo; details: 2-h post-injection, normalized against baseline, different doses, FIG. 21
Method: In some embodiments, pEEG may be recorded 1 hour before drug administration and for 2 hours after drug administration from all recorded brain regions simultaneously. To maximize the clinical translatability of a pEEG preclinical database, the frontal cortex and parietal cortex can be selected without limitation. ECoG EEG from these electrodes may be shown to offer direct rodent-to-human translation. Additionally, the hippocampus and striatum can be targeted for indwelling local field potential (LFP) recordings to investigate pharmacological responses on brain regions known to be innervated by different neurotransmitter systems.
In some embodiments, pEEG data consumed by a behavioral platform classier or other machine learning model can be processed first to remove artifacts. […] The average standard frequency bands are shown in Table IV listing the analyzed standard frequency bands. […]
In some embodiments, a normalization against the baseline pre-drug may be convenient, although other types of normalization may be used without limitation. pEEG and accelerometer spectrums can be normalized to the corresponding mean value x_mean during the pre-dosing interval [0, 1 hour](baseline): x_norm=(x−x_mean)/x_mean. For both pEEG and accelerometer data, the post-dosing features (obtained during the 2-hour post-dosing period) can be expressed as percent change from pre-dose baseline. […]

[4] = system: Male SD rats; assay: rat forced swim test, long lasting antidepressant-like effects; type: in vivo; details: vs vehicle group, p<0.05; IP 24 H prior to testing; ketamine 10 mg/kg, Enantiomer I2 30 mg/kg
Method: Male SD rats from Envigo (IN) were used in the study. Ketamine (10 mg/kg) was dissolved in saline and administered IP at a dose volume of 1 ml/kg 24 H prior testing. Enantiomer I2 was dissolved in PBS and administered IP at a dose volume of 1 ml/kg 24 H prior to testing. Videos were scored by an observer blinded to the treatment and frequency of immobility, climbing and swimming were measured. Data were analyzed by ANOVA followed by post hoc analysis where appropriate.

Structure (SMILES) | estimated eye temperature [1] | average change in core temperature (rectal temperature) [2] [degree Celsius] | change in pEEG power of high frequencies (gamma) [3] | frequency of immobility in the forced swim [4] | frequency of swimming in the forced swim [4]
CN(C)CCCN1c2ccccc2Sc2ccc(Cl)cc21 [chlorpromazine] | decrease of estimated eye temperature | 0.9 | – | – | –
CNC1(c2ccccc2Cl)CCCCC1=O (centres unmarked) [ketamine] | – | – | dose-dependent short-term increase | reduced immobility | increased swimming
